Patent publication US20130324576A1, “THERAPEUTIC COMPOUNDS” (Takeda Pharmaceutical Company Limited, priority 2012, published 2013)

biological target: T1, human PKR1 receptors (Homo sapiens, UniProt Q8TCW9); assay: PKR1 antagonist assay: block of PK1-mediated intracellular calcium release (FLIPR Tetra, Calcium 5 dye); assay type: cell-based; conditions: RBL2H3 cells expressing human PKR1; 10 min pre-incubation, stimulation with PK1 at EC80; calcium fluorescence
T1 construct: expressed in transfected cells; host or cells: RBL2H3 cells (rat basophilic leukaemia line) expressing human PKR1
T1 sequence (Q8TCW9 whole entry): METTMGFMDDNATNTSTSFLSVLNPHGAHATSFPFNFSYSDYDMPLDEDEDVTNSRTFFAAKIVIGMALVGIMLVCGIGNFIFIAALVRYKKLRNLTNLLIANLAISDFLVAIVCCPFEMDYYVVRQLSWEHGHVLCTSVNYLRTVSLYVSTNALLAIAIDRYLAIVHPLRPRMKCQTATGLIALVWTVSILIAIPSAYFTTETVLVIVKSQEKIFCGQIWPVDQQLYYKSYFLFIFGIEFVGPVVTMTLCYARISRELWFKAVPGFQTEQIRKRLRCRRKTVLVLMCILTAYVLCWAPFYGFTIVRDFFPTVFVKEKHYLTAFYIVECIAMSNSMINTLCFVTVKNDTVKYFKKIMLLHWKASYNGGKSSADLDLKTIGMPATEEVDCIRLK
Method: Prokineticin receptor 1 (PKR1) antagonists may be functionally assessed by measurement of change in intracellular calcium levels induced by Gq mediated increase in inositol triphosphate (IP3) levels. The ability of a compound to block the intracellular release of calcium mediated by PK1 in RBL2H3 cells expressing human PKR1 receptors is determined as a measure of the compound's antagonist activity in vitro.
Approximately 10,000 cells per assay well are seeded in normal culture medium in a 384 well plate (Corning). Twenty-four hours after seeding, the cells are loaded with a calcium sensitive fluorescent dye by replacing the culture medium with assay buffer (1× Hanks buffered saline, 25 mM HEPES, 0.1% w/v fatty acid free BSA (bovine serum albumin), pH 7.4) containing 1 mM probenecid and 1× Calcium 5 Reagent (Molecular Devices). Cells are incubated at 37° C. for 1 hour to allow for dye uptake.
To test for antagonist activity, test compounds at a final concentration range between 0.32 nM-10 μM (diluted in assay buffer) are added to the assay wells and allowed to incubate for 10 minutes prior to stimulation with PK1. After incubation with test compounds the assay plate is placed in a FLIPR Tetra (Molecular Devices) and PK1 (diluted in assay buffer) is added at the determined EC80 concentration (final). Ligand-dependent changes in intracellular calcium levels are determined by measuring changes in fluorescence of the dye at […] following excitation at 485 nm.

Compound | IC50 [nM]
Cc1nn(C)c(C)c1S(=O)(=O)N1CCC(Oc2cccc(Cl)c2)CC1 [Example 6, 4-(3-Chlorophenoxy)-1-[(1,3,5-trimethyl-1H-pyrazol-4-yl)sulfonyl]piperidine] | 2200
COc1cc(Cl)cnc1OC1CCN(S(=O)(=O)c2c(C)n[nH]c2C)CC1 [Example 85, 5-Chloro-2-((1-((3,5-dimethyl-1H-pyrazol-4-yl)sulfonyl)piperidin-4-yl)oxy)-3-methoxypyridine] | 1230
COC1(Cc2ccc(Cl)cc2)CCN(S(=O)(=O)c2c(C)nn(C)c2C)CC1 [Example 58, 4-(4-Chlorobenzyl)-4-methoxy-1-((1,3,5-trimethyl-1H-pyrazol-4-yl)sulfonyl)piperidine] | 2400
Cc1n[nH]c(C)c1S(=O)(=O)N1CCC(Oc2ccc(Cl)c(F)c2)CC1 [Example 47, 4-(4-Chloro-3-fluorophenoxy)-1-(3,5-dimethyl-1H-pyrazole-4-sulfonyl)piperidine] | 1900
Cc1nn(C)c(C)c1S(=O)(=O)N1CCC(N(C)c2ccc(Cl)c(Cl)c2)CC1 [Example 54] | 5200
Cc1nn(C)c(C)c1S(=O)(=O)N1CCC(C(=O)c2ccc(Cl)c(Cl)c2)CC1 [Example 50, (3,4-Dichlorophenyl)(1-((1,3,5-trimethyl-1H-pyrazol-4-yl)sulfonyl)piperidin-4-yl)methanone] | 2100
Cc1n[nH]c(C)c1S(=O)(=O)N1CCC(C(F)c2ccc(Cl)cc2)CC1 (single isomer, unassigned) [Example 106, 4-((4-Chlorophenyl)fluoromethyl)-1-((3,5-dimethyl-1H-pyrazol-4-yl)sulfonyl)piperidine] | 4000
Cc1n[nH]c(C)c1S(=O)(=O)N1CCC(Oc2ccc(OC(F)(F)F)cc2)CC1 [Example 32, 1-[(3,5-Dimethyl-1H-pyrazol-4-yl)sulfonyl]-4-[4-(trifluoromethoxy)phenoxy]piperidine] | 3400
Cc1nn(C)c(C)c1S(=O)(=O)N1CCC(Oc2ncc(Cl)cc2F)CC1 [Example 77, 5-Chloro-3-fluoro-2-((1-((1,3,5-trimethyl-1H-pyrazol-4-yl)sulfonyl)piperidin-4-yl)oxy)pyridine] | 3190
Cc1nn(C)c(C)c1S(=O)(=O)N1CCC(Nc2ccc(Cl)cc2)CC1 [Example 51, N-(4-Chlorophenyl)-1-((1,3,5-trimethyl-1H-pyrazol-4-yl)sulfonyl)piperidin-4-amine] | 1500
Cc1n[nH]c(C)c1S(=O)(=O)N1CCC(Oc2ccc(Cl)cc2F)CC1 [Example 35, 4-(4-Chloro-2-fluorophenoxy)-1-(3,5-dimethyl-1H-pyrazole-4-sulfonyl)piperidine] | 1100
Cc1n[nH]c(C)c1S(=O)(=O)N1CCC(C(C)(O)c2ccc(Cl)cc2)CC1 (centres unmarked) [Example 101, 1-(4-Chlorophenyl)-1-(1-((3,5-dimethyl-1H-pyrazol-4-yl)sulfonyl)piperidin-4-yl)ethanol] | 2380
COC(c1ccccc1)C1CCN(S(=O)(=O)c2c(C)n[nH]c2C)CC1 (centres unmarked) [Example 110, 1-((3,5-Dimethyl-1H-pyrazol-4-yl)sulfonyl)-4-(methoxy(phenyl)methyl)piperidine] | 3010
Cc1nn(C)c(C)c1S(=O)(=O)N1CCC(O)(Cc2ccc(Cl)cc2)CC1 [Example 57, 4-(4-Chlorobenzyl)-1-((1,3,5-trimethyl-1H-pyrazol-4-yl)sulfonyl)piperidin-4-ol] | 1600
Cc1cnn(C)c1S(=O)(=O)N1CCC(Oc2ccc(Cl)cc2)CC1 [Example 37, 4-(4-Chlorophenoxy)-1-(1,4-dimethyl-1H-pyrazole-5-sulfonyl)piperidine] | 7400
COC(c1ccc(Cl)cc1)C1CCN(S(=O)(=O)c2c(C)n[nH]c2C)CC1 (single isomer, unassigned) [Example 97, 4-((4-Chlorophenyl)(methoxy)methyl)-1-((3,5-dimethyl-1H-pyrazol-4-yl)sulfonyl)piperidine] | 4620
Cc1nn(C(F)F)c(C)c1S(=O)(=O)N1CCC(Oc2ccc(Cl)cc2Cl)CC1 [Example 29] | 1100

More lines, in order of falling IC50, values ahead:

IC50 [nM] | Compound
1100 | Cc1cnn(C)c1S(=O)(=O)N1CCC(Oc2ccc(Cl)cc2Cl)CC1 [Example 36, 4-(2,4-Dichlorophenoxy)-1-(1,4-dimethyl-1H-pyrazole-5-sulfonyl)piperidine]
1000 | Cc1nn(C)c(C)c1S(=O)(=O)N1CCC(C(=O)c2ccc(Cl)cc2)CC1 [Example 49, (4-Chlorophenyl)(1-((1,3,5-trimethyl-1H-pyrazol-4-yl)sulfonyl)piperidin-4-yl)methanone]
1000 | Cc1n[nH]c(C)c1S(=O)(=O)N1CCC(Oc2ccc(Cl)c(Cl)c2)CC1 [Example 2, 4-(3,4-Dichlorophenoxy)-1-[(3,5-dimethyl-1H-pyrazol-4-yl)sulfonyl]piperidine]
940 | Cc1n[nH]c(C)c1S(=O)(=O)N1CCC(C#N)(Cc2ccc(Cl)cc2Cl)CC1 [Example 65, 4-(2,4-Dichlorobenzyl)-1-((3,5-dimethyl-1H-pyrazol-4-yl)sulfonyl)piperidine-4-carbonitrile]
860 | Cc1ccc(OC2CCN(S(=O)(=O)c3c(C)nn(C)c3Cl)CC2)cc1 [Example 11, 1-[(5-Chloro-1,3-dimethyl-1H-pyrazol-4-yl)sulfonyl]-4-(4-methylphenoxy)piperidine]
820 | Cc1ccc(OC2CCN(S(=O)(=O)c3c(C)nn(C)c3C)CC2)cc1 [Example 4, 4-(4-Methylphenoxy)-1-[(1,3,5-trimethyl-1H-pyrazol-4-yl)sulfonyl]piperidine]
790 | Cc1nn(C)c(C)c1S(=O)(=O)N1CCC(Oc2ccc(Cl)cc2Cl)CC1 [Example 13, 4-(2,4-Dichlorophenoxy)-1-[(1,3,5-trimethyl-1H-pyrazol-4-yl)sulfonyl]piperidine]
730 | Cc1nn(C)c(C)c1S(=O)(=O)N1CCC(Cc2ccc(Cl)cc2F)CC1 [Example 83, 4-(4-Chloro-2-fluorobenzyl)-1-((1,3,5-trimethyl-1H-pyrazol-4-yl)sulfonyl)piperidine]
720 | CCOC(c1ccc(Cl)cc1)C1CCN(S(=O)(=O)c2c(C)n[nH]c2C)CC1 (centres unmarked) [Example 104, 4-((4-Chlorophenyl)(ethoxy)methyl)-1-((3,5-dimethyl-1H-pyrazol-4-yl)sulfonyl)piperidine]
680 | CCOC(=O)C1(Cc2ccc(Br)cc2)CCN(S(=O)(=O)c2c(C)n[nH]c2C)CC1 [Example 62, Ethyl 4-(4-bromobenzyl)-1-((3,5-dimethyl-1H-pyrazol-4-yl)sulfonyl)piperidine-4-carboxylate]
670 | Cc1nn(C)c(C)c1S(=O)(=O)N1CCC(F)(Cc2ccc(Cl)cc2F)CC1 [Example 81, 4-(4-Chloro-2-fluorobenzyl)-4-fluoro-1-((1,3,5-trimethyl-1H-pyrazol-4-yl)sulfonyl)piperidine]
530 | Cc1nn(C)c(C)c1S(=O)(=O)N1CCC(Oc2ccc(Cl)cc2)CC1 [Example 5, 4-(4-Chlorophenoxy)-1-[(1,3,5-trimethyl-1H-pyrazol-4-yl)sulfonyl]piperidine]
520 | Cc1nn(C)c(C)c1S(=O)(=O)N1CCC(Cc2ccc(Cl)cc2)CC1 [Example 55, 4-(4-Chlorobenzyl)-1-((1,3,5-trimethyl-1H-pyrazol-4-yl)sulfonyl)piperidine]
520 | Cc1n[nH]c(C)c1S(=O)(=O)N1CCC(Cc2ccc(Cl)cc2)CC1 [Example 67, 4-(4-Chlorobenzyl)-1-((3,5-dimethyl-1H-pyrazol-4-yl)sulfonyl)piperidine]
210 | Cc1nn(C)c(C)c1S(=O)(=O)N1CCC(Oc2ccc(Cl)cc2C(F)(F)F)CC1 [Example 39, 4-[4-Chloro-2-(trifluoromethyl)phenoxy]-1-(trimethyl-1H-pyrazole-4-sulfonyl)piperidine]
210 | Cc1n[nH]c(C)c1S(=O)(=O)N1CCC(Oc2ccc(Cl)cc2C(F)(F)F)CC1 [Example 40, 4-[4-Chloro-2-(trifluoromethyl)phenoxy]-1-(3,5-dimethyl-1H-pyrazole-4-sulfonyl)piperidine]
200 | COc1cc(Cl)ccc1OC1CCN(S(=O)(=O)c2c(C)n[nH]c2C)CC1 [Example 73, 4-(4-Chloro-2-methoxyphenoxy)-1-((3,5-dimethyl-1H-pyrazol-4-yl)sulfonyl)piperidine]
170 | COc1cc(Cl)ccc1CC1(F)CCN(S(=O)(=O)c2c(C)n[nH]c2C)CC1 [Example 90, 4-(4-Chloro-2-methoxybenzyl)-1-((3,5-dimethyl-1H-pyrazol-4-yl)sulfonyl)-4-fluoropiperidine]
140 | COc1cc(Cl)ccc1CC1(F)CCN(S(=O)(=O)c2c(C)nn(C)c2C)CC1 [Example 91, 4-(4-Chloro-2-methoxybenzyl)-4-fluoro-1-((1,3,5-trimethyl-1H-pyrazol-4-yl)sulfonyl)piperidine]
70 | COc1cc(Cl)ccc1CC1CCN(S(=O)(=O)c2c(C)n[nH]c2C)CC1 [Example 78, 4-(4-Chloro-2-methoxybenzyl)-1-((3,5-dimethyl-1H-pyrazol-4-yl)sulfonyl)piperidine]
60 | COC(c1ccc(Cl)cc1)C1CCN(S(=O)(=O)c2c(C)nn(C)c2C)CC1 (centres unmarked) [Example 99, 4-((4-Chlorophenyl)(methoxy)methyl)-1-((1,3,5-trimethyl-1H-pyrazol-4-yl)sulfonyl)piperidine]
